Measured values reported in ChEMBL document CHEMBL6109156, “Discovery of Dual PD-L1/HDAC3 Inhibitors for Tumor Immunotherapy” (J Med Chem, 2025).

Legend:
B16-F10 [1] = assay: Induction of apoptosis in mouse B16-F10 cells assessed as viable cells at 4 uM incubated for 48 hrs by Annexin V-FITC/PI staining based flow cytometry analysis (reference value: 92.3%); format: functional; conditions: read-out: Activity
B16-F10 [2] = assay: Induction of apoptosis in mouse B16-F10 cells assessed as late apoptotic cells at 1 uM incubated for 48 hrs by Annexin V-FITC/PI staining based flow cytometry analysis (reference value: 5.02 %); format: functional
B16-F10 [3] = assay: Induction of cell cycle arrest in mouse B16-F10 cells assessed as accumulation of cells at G2/M phase at 1 uM incubated for 48 hrs by PI staining based flow cytometry analysis (reference value: 5.87%); format: functional
B16-F10 [4] = assay: Induction of apoptosis in mouse B16-F10 cells assessed as late apoptotic cells at 2 uM incubated for 48 hrs by Annexin V-FITC/PI staining based flow cytometry analysis (reference value: 5.02 %); format: functional
[5] = Toxicity in C57BL/6J mouse implanted with mouse B16-F10 cells assessed as kidney damage at 20 to 40 mg/kg, ip administered once daily for 9 days by H and E staining based analysis; format: organism-based; conditions: in vivo, 216 h, dose 20-40 mg/kg, time 9 day
B16-F10 [6] = assay: Induction of cell cycle arrest in mouse B16-F10 cells assessed as accumulation of cells at G2/M phase at 2 uM incubated for 48 hrs by PI staining based flow cytometry analysis (reference value: 5.87%); format: functional
[7] = Toxicity in C57BL/6J mouse implanted with mouse B16-F10 cells assessed as spleen damage at 20 to 40 mg/kg, ip administered once daily for 9 days by H and E staining based analysis; format: organism-based; conditions: in vivo, 216 h, dose 20-40 mg/kg, time 9 day
Histone deacetylase 3 [8] = target: T1, Histone deacetylase 3 (Homo sapiens, UniProt O15379); assay: Inhibition of human recombinant HDAC3 using Ac-Leu-Gly-Lys (Ac)-AMC as substrate at 1 uM preincubated for 10 mins followed by substrate addition and measured after 45 mins by TECAN microtiter plate reader analysis relative to control; conditions: time 55.0 min
T1 sequence (O15379 whole entry): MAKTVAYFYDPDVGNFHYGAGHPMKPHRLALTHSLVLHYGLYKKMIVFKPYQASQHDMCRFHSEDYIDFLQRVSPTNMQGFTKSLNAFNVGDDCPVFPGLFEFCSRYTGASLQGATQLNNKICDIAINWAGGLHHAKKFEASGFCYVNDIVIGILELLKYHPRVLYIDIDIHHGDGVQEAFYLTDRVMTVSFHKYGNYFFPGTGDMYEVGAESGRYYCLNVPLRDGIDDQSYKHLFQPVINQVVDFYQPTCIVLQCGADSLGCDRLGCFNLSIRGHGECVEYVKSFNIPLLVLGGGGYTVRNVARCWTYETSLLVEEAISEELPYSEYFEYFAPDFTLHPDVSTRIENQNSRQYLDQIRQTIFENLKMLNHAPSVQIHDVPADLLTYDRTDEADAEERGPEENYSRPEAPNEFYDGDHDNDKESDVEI

B16-F10 [9] = assay: Induction of cell cycle arrest in mouse B16-F10 cells assessed as accumulation of cells at G0/G1 phase at 8 uM incubated for 48 hrs by PI staining based flow cytometry analysis (reference value: 70.09%); format: functional
B16-F10 [10] = assay: Antiproliferative activity against mouse B16-F10 cells assessed as cell growth inhibition incubated for 48 hrs by MTT assay; format: functional, cell-based; conditions: B16-F10, 48 h
B16-F10 [11] = assay: Induction of apoptosis in mouse B16-F10 cells assessed as early apoptotic cells at 10 uM incubated for 48 hrs by Annexin V-FITC/PI staining based flow cytometry analysis (reference value: 0.45 %); format: functional
B16-F10 [12] = assay: Immunomodulatory activity in mouse B16-F10 cells implanted in C57BL/6J mouse assessed as percentage of CD3 positive CD8 positive cells in tumor at 40 mg/kg, ip administered once daily for 9 days by flow cytometric analysis (reference value: 0.44 %); format: functional; conditions: time 9 day
B16-F10 [13] = assay: Induction of apoptosis in mouse B16-F10 cells assessed as viable cells at 10 uM incubated for 48 hrs by Annexin V-FITC/PI staining based flow cytometry analysis (reference value: 92.3%); format: functional; conditions: read-out: Activity
HCT-116 = assay: Antiproliferative activity against human HCT-116 cells assessed as cell growth inhibition incubated for 48 hrs by MTT assay; format: functional, cell-based; conditions: HCT-116, 48 h
[14] = Toxicity in C57BL/6J mouse implanted with mouse B16-F10 cells assessed as heart damage at 20 to 40 mg/kg, ip administered once daily for 9 days by H and E staining based analysis; format: organism-based; conditions: in vivo, 216 h, dose 20-40 mg/kg, time 9 day
Histone deacetylase 1 = Histone deacetylase 1 (Homo sapiens, UniProt Q13547); assay: Inhibition of human recombinant HDAC1 using Ac-Leu-Gly-Lys (Ac)-AMC as substrate preincubated for 10 mins followed by substrate addition and measured after 45 mins by TECAN microtiter plate reader analysis
Sequence of Histone deacetylase 1 (Q13547 whole entry): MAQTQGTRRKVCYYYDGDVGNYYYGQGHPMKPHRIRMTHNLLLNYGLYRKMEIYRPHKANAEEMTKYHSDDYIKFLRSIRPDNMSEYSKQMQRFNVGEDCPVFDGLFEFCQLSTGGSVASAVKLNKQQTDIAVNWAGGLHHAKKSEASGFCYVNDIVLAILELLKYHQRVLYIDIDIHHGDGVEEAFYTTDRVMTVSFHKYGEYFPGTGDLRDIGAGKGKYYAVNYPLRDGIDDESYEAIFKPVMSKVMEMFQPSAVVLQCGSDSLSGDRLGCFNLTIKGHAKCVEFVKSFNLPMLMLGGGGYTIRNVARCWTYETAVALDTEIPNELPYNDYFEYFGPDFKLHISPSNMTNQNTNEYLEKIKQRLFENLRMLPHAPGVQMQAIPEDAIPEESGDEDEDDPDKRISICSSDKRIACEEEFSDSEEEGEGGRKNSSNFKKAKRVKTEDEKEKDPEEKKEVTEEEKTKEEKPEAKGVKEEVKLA

B16-F10 [15] = assay: Induction of cell cycle arrest in mouse B16-F10 cells assessed as accumulation of cells at S phase at 4 uM incubated for 48 hrs by PI staining based flow cytometry analysis (reference value: 24.04%); format: functional
B16-F10 [16] = assay: Induction of apoptosis in mouse B16-F10 cells assessed as late apoptotic cells at 10 uM incubated for 48 hrs by Annexin V-FITC/PI staining based flow cytometry analysis (reference value: 5.02 %); format: functional
[17] = target: Programmed cell death protein 1/Programmed cell death 1 ligand 1 (Homo sapiens) (UniProt Q15116+Q9NZQ7); assay: (§1) Inhibition of PD-1/PD-L1 (unknown origin) interaction assessed as inhibition rate at 1 uM by HTRF assay relative to control; format: protein-complex assay
[18] = target: Programmed cell death protein 1/Programmed cell death 1 ligand 1 (Homo sapiens, UniProt Q9NZQ7); assay: as §1; format: protein-complex assay
Sequence of Programmed cell death protein 1/Programmed cell death 1 ligand 1 (Q15116 whole entry): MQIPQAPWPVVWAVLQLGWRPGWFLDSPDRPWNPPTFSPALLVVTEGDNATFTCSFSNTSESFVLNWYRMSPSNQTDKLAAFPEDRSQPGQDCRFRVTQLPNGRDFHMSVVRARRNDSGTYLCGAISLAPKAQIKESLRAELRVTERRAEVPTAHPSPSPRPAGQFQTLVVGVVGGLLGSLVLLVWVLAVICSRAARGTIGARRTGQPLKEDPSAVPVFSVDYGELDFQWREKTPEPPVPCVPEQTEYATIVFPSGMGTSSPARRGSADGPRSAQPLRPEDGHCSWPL
Sequence of Programmed cell death protein 1/Programmed cell death 1 ligand 1 (Q9NZQ7 whole entry): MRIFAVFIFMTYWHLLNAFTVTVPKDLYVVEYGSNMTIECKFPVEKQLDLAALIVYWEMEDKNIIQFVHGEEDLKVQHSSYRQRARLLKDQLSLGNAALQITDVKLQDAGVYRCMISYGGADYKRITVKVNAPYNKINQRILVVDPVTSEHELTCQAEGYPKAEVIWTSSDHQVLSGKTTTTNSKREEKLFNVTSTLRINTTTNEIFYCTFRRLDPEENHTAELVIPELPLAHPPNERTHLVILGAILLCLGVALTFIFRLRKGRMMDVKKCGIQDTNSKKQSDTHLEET

HepG2 = assay: Antiproliferative activity against human HepG2 cells assessed as cell growth inhibition incubated for 48 hrs by MTT assay; format: functional, cell-based; conditions: HepG2, 48 h
MDA-MB-231 = assay: Antiproliferative activity against human MDA-MB-231 cells assessed as cell growth inhibition incubated for 48 hrs by MTT assay; format: functional, cell-based; conditions: MDA-MB-231, 48 h
B16-F10 [19] = assay: Induction of cell cycle arrest in mouse B16-F10 cells assessed as accumulation of cells at G0/G1 phase at 2 uM incubated for 48 hrs by PI staining based flow cytometry analysis (reference value: 70.09%); format: functional
Histone deacetylase 8 = target: T2, Histone deacetylase 8 (Homo sapiens, UniProt Q9BY41); assay: Inhibition of human recombinant HDAC8 using Ac-Leu-Gly-Lys (Tfa)-AMC as substrate preincubated for 10 mins followed by substrate addition and measured after 45 mins by TECAN microtiter plate reader analysis
T2 sequence (Q9BY41 whole entry): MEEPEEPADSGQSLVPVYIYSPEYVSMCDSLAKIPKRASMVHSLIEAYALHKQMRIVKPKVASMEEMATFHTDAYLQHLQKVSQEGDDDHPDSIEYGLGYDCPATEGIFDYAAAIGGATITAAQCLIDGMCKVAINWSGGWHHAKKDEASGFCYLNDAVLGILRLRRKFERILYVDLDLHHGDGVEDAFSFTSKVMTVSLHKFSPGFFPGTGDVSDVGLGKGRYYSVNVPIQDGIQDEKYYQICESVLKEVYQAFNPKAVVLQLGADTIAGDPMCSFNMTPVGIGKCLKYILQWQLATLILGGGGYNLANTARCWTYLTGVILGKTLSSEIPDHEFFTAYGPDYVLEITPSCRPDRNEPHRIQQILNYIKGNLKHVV

[20] = Toxicity in C57BL/6J mouse implanted with mouse B16-F10 cells assessed as lung damage at 20 to 40 mg/kg, ip administered once daily for 9 days by H and E staining based analysis; format: organism-based; conditions: in vivo, 216 h, dose 20-40 mg/kg, time 9 day
Histone deacetylase 3 [21] = target: T1, Histone deacetylase 3; assay: Inhibition of human recombinant HDAC3 using Ac-Leu-Gly-Lys (Ac)-AMC as substrate preincubated for 10 mins followed by substrate addition and measured after 45 mins by TECAN microtiter plate reader analysis
B16-F10 [22] = assay: Induction of apoptosis in mouse B16-F10 cells assessed as necrotic cells at 8 uM incubated for 48 hrs by Annexin V-FITC/PI staining based flow cytometry analysis (reference value: 2.24%); format: functional
[23] = Toxicity in C57BL/6J mouse implanted with mouse B16-F10 cells assessed as body weight loss at 20 to 40 mg/kg, ip administered once daily for 9 days; format: organism-based; conditions: in vivo, 216 h, dose 20-40 mg/kg, time 9 day

**Q.** With `CCCNNC(=O)CCCNCc1ccc(-c2cccc(-c3ccccc3)c2C)nc1OC` as the compound, how does the viability at 4 µM (B16-F10 [1]) read?
**A.** 62.3%

**Q.** What about the Activity (B16-F10 [2]) of the same compound?
**A.** 9.24%

**Q.** And the Activity (B16-F10 [3])?
**A.** 4.75%

**Q.** And the Activity (B16-F10 [4])?
**A.** 14.1%

**Q.** And the Activity [5]?
**A.** Non-toxic

**Q.** What about the Activity (B16-F10 [6]) of the same compound?
**A.** 4.96%

**Q.** And the Activity [7]?
**A.** Non-toxic

**Q.** What about the inhibition (Histone deacetylase 3 [8]) of the same compound?
**A.** 83.1%

**Q.** And the Activity (B16-F10 [9])?
**A.** 96.8%

**Q.** And the IC50 (B16-F10 [10])?
**A.** 2330 nM

**Q.** And the Activity (B16-F10 [11])?
**A.** 52.9%

**Q.** And the Activity (B16-F10 [12])?
**A.** 5.08%

**Q.** What about the viability at 10 µM (B16-F10 [13]) of the same compound?
**A.** 31.3%

**Q.** And the IC50 (HCT-116)?
**A.** 2860 nM

**Q.** What about the Activity [14] of the same compound?
**A.** Non-toxic

**Q.** And the IC50 (Histone deacetylase 1)?
**A.** 2230 nM

**Q.** What about the Activity (B16-F10 [15]) of the same compound?
**A.** 4.69%

**Q.** And the Activity (B16-F10 [16])?
**A.** 14.8%

**Q.** And the inhibition [17]?
**A.** 94.3%

**Q.** What about the IC50 [18] of the same compound?
**A.** 89.4 nM

**Q.** What about the IC50 (HepG2) of the same compound?
**A.** 4000 nM

**Q.** And the IC50 (MDA-MB-231)?
**A.** 3010 nM

**Q.** What about the Activity (B16-F10 [19]) of the same compound?
**A.** 87.25%

**Q.** And the IC50 (Histone deacetylase 8)?
**A.** > 10000 nM

**Q.** And the Activity [20]?
**A.** Non-toxic

**Q.** What about the IC50 (Histone deacetylase 3 [21]) of the same compound?
**A.** 107 nM

**Q.** What about the Activity (B16-F10 [22]) of the same compound?
**A.** 2.21%

**Q.** And the Activity [23]?
**A.** Non-toxic
